We go through eleven compounds from ChEMBL document CHEMBL1137236, “Synthesis and neuroprotective effects of serofendic acid analogues” (2006).

Test [1] has as its system Cortical neurone. The experiment in a line: Protective effect against L-glutamate-induced neurotoxicity in rat primary cortical neurons at 10 uM by trypan blue exclusion method. The class given is functional.
The subject of test [2] is Cortical neurone. The experiment in a line: Protective effect against L-glutamate-induced neurotoxicity in rat primary cortical neurons at 1 uM by trypan blue exclusion method. It counts as functional.

Compound `C[S+]([O-])CC1=C[C@]23CC[C@H]1C[C@H]2[C@]1(C)CCC[C@@](C)(C(=O)O)[C@H]1CC3` (stereo partly specified) showed an Activity with Cortical neurone [1] of 15.6%.

Consider `CSC[C@H]1[C@H]2CC[C@@]3(CC[C@H]4[C@@](C)(CCC[C@@]4(C)C(=O)O)[C@@H]3C2)[C@@H]1O`, for which the Activity in the test with Cortical neurone [1] was determined as 39.8%.

On to `C[S+]([O-])C[C@@H]1[C@H]2CC[C@@]3(CC[C@H]4[C@@](C)(CCC[C@@]4(C)C(=O)O)[C@@H]3C2)[C@H]1O` (stereo partly specified), for which the Activity in the test on Cortical neurone [1] was found to be 33.7%.

As for `C[S+]([O-])C[C@H]1[C@H]2CC[C@@]3(CC[C@@H]4[C@](C)(CO)CCC[C@@]4(C)[C@@H]3C2)[C@@H]1O` (stereo partly specified), the Activity in the test on Cortical neurone [1] came to 7.79%.

Consider `C[S+]([O-])C[C@H]1[C@H]2CC[C@@]3(CC[C@@H]4C(C)(C)CCC[C@@]4(C)[C@@H]3C2)[C@@H]1O` (stereo partly specified), for which the Activity in the test on Cortical neurone [1] turned out to be 13.1%.

Compound `C[C@]12N[C@H](Cc3ccccc31)c1ccccc12.O=C(O)/C=C\C(=O)O` [DIZOCILPINE MALEATE] registered an Activity in the test with Cortical neurone [2] of 80.7%.

As for `C[S+]([O-])C[C@@H]1C(=O)[C@]23CC[C@H]1C[C@H]2[C@]1(C)CCC[C@@](C)(C(=O)O)[C@H]1CC3` (stereo partly specified), the Activity in the test on Cortical neurone [1] was 41.5%.

In turn, `C[S+]([O-])C[C@H]1[C@H]2CC[C@@]3(CC[C@H]4[C@@](C)(CCC[C@@]4(C)C(=O)O)[C@@H]3C2)[C@@H]1O` (stereo partly specified) [SEROFENDIC ACID] came in with an Activity in the test on Cortical neurone [1] of 45.3%.

In the test on Cortical neurone [1], `C[C@@]12CCC[C@@](C)(C(=O)O)[C@H]1CC[C@@]13CC[C@@H](C[C@@H]21)[C@H](CS(C)(=O)=O)[C@H]3O` displayed an Activity of 20%.

Regarding `C[S+]([O-])CC1C[C@]23CC[C@H]1C[C@H]2[C@]1(C)CCC[C@@](C)(C(=O)O)[C@H]1CC3` (stereo partly specified), the Activity in the test on Cortical neurone [1] was determined as 18.1%.

`COC(=O)[C@]1(C)CCC[C@@]2(C)[C@@H]3C[C@@H]4CC[C@@]3(CC[C@@H]21)[C@H](O)[C@H]4C[S+](C)[O-]` (stereo partly specified) came in with an Activity in the test with Cortical neurone [1] of 20.5%.
